Results from patent publication US20200087340A1, “LIF/LIFR ANTAGONIST IN ONCOLOGY AND NONMALIGNANT DISEASES” (Evestra, Inc., priority 2018, published 2020).

How the values were obtained:
T47D cells = assay: Soft agar colony formation assay; type: cell-based, human; conditions: 100 nM concentration
Method: Colonies of cancer cells formed in soft agar in the presence and absence of the testing compounds is a standard assay to interpret in-vitro tumorigenic potential in the basal layer. Agar was prepared by mixing 1% DNA grade agar melted and cooled to 40° C. with an equal volume of (2×) Dulbecco's Modified Eagle's Medium (DMEM) to obtain 0.5% agar that was dispersed in a 6-well plate and allowed to solidify. A total of 0.6% agar was prepared in RPMI medium and mixed together with T47D cells (0.5×10^6 cells/mL) and immediately plated on the basal layer in the presence or absence of testing compounds. The cultures were incubated at 37° C. in a CO2 incubator for 2 weeks, and colonies were stained with 0.005% crystal violet and observed under a light microscope.

[1] = tested on: human umbilical vein endothelial cells (HUVEC); assay: Matrigel in vitro HUVECs tube formation assay (angiogenesis); type: cell-based; conditions: 1 μM concentration, all measured time points
Method: Matrigel in vitro HUVECs tube formation assay: The tube formation assay was performed using 12-well plate coated with 100 μL Matrigel basement membrane matrix (BD Bioscience) per well and polymerized at 37° C. for 30 min. Human umbilical vascular endothelial cells (HUVECs) suspended in M199 medium containing 2% FBS were plated on the Matrigel at a density of 2×10^5 cells/well. […] After 8 h, the Matrigel-induced morphological changes were photographed and the extent of capillary tube formation was evaluated by measuring the total tube length per field.

[2] = tested on: various cancer cells lines; assay: Cytotoxicity assays in various cancer cell lines; type: cell-based
[3] = tested on: human endometrial stromal cells (HESC); assay: Decidualization assay, phalloidin staining of actin cytoskeleton; type: cell-based
Method: Decidualization studies: The above compounds were investigated originally for the treatment of endometriosis. The compounds were tested in a decidualization assay using human endometrial stromal fibroblast (HESC) cells. In preparation for the possibility of embryonic attachment, the stromal cells in the endometrium undergo extensive waves of proliferation, remodeling, and terminal differentiation that transforms the endometrium into an endocrine gland, called decidua. This transformation is called decidualization and it is under the control by ovarian hormones.
The level of apoptosis increases from the proliferative phase through menstrual cycle and peaks at menses. […] However if the cells are subjected to conditions that induce decidualization, stromal cells will begin to differentiate instead of undergoing apoptosis.
Rationale of this assay is described above in mechanism of action studies section. Briefly, human stromal endometrial cells were plated in the presence and absence of progesterone and allow undergoing decidualization. The cells treated with test compounds of different concentrations and stained for actin cytocketal morphology using phalloidin staining and monitored under fluorescent microscope.

MCF-7 cells = assay: P53 / MDM2 levels in MCF-7 cells; type: cell-based, human
[4] = tested on: Patient derived tumor (melanoma); assay: Immunohistochemistry analysis of treated patient derived tumor; type: cell-based, human; conditions: 10 nM and 1 uM for 5 days
Method: Patient derived tumor (melanoma) was treated with the compounds at 10 nM and 1 uM for 5 days in RPMI medium and harvested on day 6 using established protocol and immunohistochemistry was performed for different antibodies including p53, LIF, MDM2, pSTAT3, Ki67.

[5] = tested on: unmodified MCF-7 human breast cancer cells; assay: LIF specificity assay, cytotoxicity; type: cell-based; conditions: MCF7
[6] = tested on: LIF-overexpressing MCF-7 (MCF-7 LIF) human breast cancer cells; assay: LIF specificity assay, cytotoxicity; type: cell-based; conditions: for Fold Change: cytotoxicity MCF-7 vs. MCF-7 LIF (specificity towards LIF)
U251 (Glioma) = assay: Short term (72 h) cytotoxicity assay; type: cell-based; conditions: Homo sapiens, U-251; U251, 72 h
A549 (Lung cancer) = assay: Short term (72 h) cytotoxicity assay; type: cell-based; conditions: Homo sapiens, A549, 72 h
U87-MU (Glioma cells) = assay: Short term (72 h) cytotoxicity assay; type: cell-based; conditions: Glioma cell
[7] = tested on: FC 1295 and imPSCc-2 organoids; assay: Pancreatic cancer / stellate cell line derived organoid system; type: cell-based, Murine; conditions: as compared to control
Method: Most solid tumors have extensive stroma that not only facilitates the tumor progression but also impedes the delivery of the chemotherapeutic agents. Due to lack of any in-vitro system, presently it is difficult to evaluate any stroma-targeted therapies. Therefore, we developed an organoid system using labeled pancreatic cancer and stellate cell lines. Murine (FC 1295 and […]-2) cell lines cultured in different combinations were grown as an organoid system using matrigel. The organoids, starting day four were treated with either gemcitabine or EC359, a novel mifepristone derived steroidal cytotoxic agent that targets tumor stroma, or both in combination. qRT-PCR analysis of activated stroma signature genes was performed on the mRNA isolated from different treatment groups. H&E, immunohistochemistry, and western blot analysis were performed to further validate our findings. […] Our novel cell line derived organoid model can be utilized for fast, and inexpensive evaluation of stroma-targeted therapies.

Q: Which colonies formed (T47D cells) does the source give for C#CC(F)(F)[C@]1(O)CCC2C3CCC4=CC(=O)CCC4=C3C(c3ccc(C(C)=O)cc3)C[C@@]21C (stereo partly drawn) [EC332, 17α-(1,1-difluoro-2-propyn-1-yl)-17β-hydroxy-11β-[4-p-(acetyl)phenyl]estra-4,9-dien-3-one] here?
A: complete inhibition or no colonies were formed

Q: And the tube formation [1]?
A: complete abrogation of tube formation

Q: What about the “cytotoxicity (IC50's) in cytotoxicity assays” value [2] of the same compound?
A: low nanomolar

Q: And the “actin cytoskeletal disruption (phalloidin staining)” value [3]?
A: cytoskeletal disruption

Q: What about the “P53 levels / MDM2” value (MCF-7 cells) of the same compound?
A: restore P53 levels by inhibiting MDM2

Q: And the “apoptosis, p53, MDM2, LIF mediated STAT3 phosphorylation (immunohistochemistry)” value [4]?
A: induce apoptosis and restore p53 by inhibiting MDM2 and LIF mediated STAT3 phosphorylation

Q: With C#CC(F)(F)[C@]1(O)CCC2C3CCC4=CC(=O)CCC4=C3C(c3ccc(-n4ccnc4)cc3)C[C@@]21C (some centres unmarked) [EC351] as the compound, how does the melting point read?
A: 175 to 178 °C

Q: For C#CC(F)(F)[C@]1(O)CCC2C3CCC4=CC(=O)CCC4=C3C(c3ccc(N(C)C)cc3)C[C@@]21C (stereo partly drawn) [EC352, 17α-(1,1-difluoro-2-propyn-1-yl)-17β-hydroxy-11β-[4-p-(dimethylamino)phenyl]estra-4,9-dien-3-one], which IC50 [5] is on record?
A: > 10 µM

Q: What about the IC50 ([6]; Homo sapiens, MCF7, LIF-overexpressing MCF-7) of the same compound?
A: > 10 µM

Q: And the “Fold Change” value [6]?
A: 0

Q: What about the IC50 (U251 (Glioma)) of the same compound?
A: 0.04 µM

Q: What about the IC50 (A549 (Lung cancer)) of the same compound?
A: 0.045 µM

Q: And the IC50 (U87-MU (Glioma cells))?
A: 0.05 µM

Q: With C#CC(F)(F)[C@]1(O)CCC2C3CCC4=CC(=O)CCC4=C3C(c3ccc(OC)cc3)C[C@@]21C (stereo partly drawn) [EC356, 17α-(1,1-difluoro-2-propyn-1-yl)-17β-hydroxy-11β-[4-p-(methoxy)phenyl]estra-4,9-dien-3-one] as the compound, how does the “Fold Change” value [6] read?
A: 2

Q: With C#CC(F)(F)[C@]1(O)CCC2C3CCC4=CC(=O)CCC4=C3C(c3ccc(C(C)(C)C)cc3)C[C@@]21C (stereo partly drawn) [EC357, 17α-(1,1-difluoro-2-propyn-1-yl)-17β-hydroxy-11β-[4-p-(t-butyl)phenyl]estra-4,9-dien-3-one] as the compound, how does the melting point read?
A: 127 to 129 °C

Q: Which “Fold Change” value [6] does the source give for C#CC(F)(F)[C@]1(O)CCC2C3CCC4=CC(=O)CCC4=C3C(c3ccc(C(=C)C)cc3)C[C@@]21C (stereo partly drawn) [EC358, 17α-(1,1-difluoro-2-propyn-1-yl)-17β-hydroxy-11β-[4-p-(1-methylethenyl)phenyl]estra-4,9-dien-3-one] here?
A: 2

Q: With C#CC(F)(F)[C@]1(O)CCC2C3CCC4=CC(=O)CCC4=C3C(c3ccc(C4CCCCC4)cc3)C[C@@]21C (stereo partly drawn) [EC360, 17α-(1,1-difluoro-2-propyn-1-yl)-17β-hydroxy-11β-[4-p-(cyclohexyl)phenyl]estra-4,9-dien-3-one] as the compound, how does the “Fold Change” value [6] read?
A: 2

Q: With C#CC(F)(F)[C@]1(O)CCC2C3CCC4=CC(=O)CCC4=C3C(c3ccc(S(=O)(=O)C4CC4)cc3)C[C@@]21C (stereo partly drawn) [EC361, 17α-(1,1-difluoro-2-propyn-1-yl)-17β-hydroxy-11β-[4-p-(cyclopropylsulfonyl)phenyl]estra-4,9-dien-3-one] as the compound, how does the “Fold Change” value [6] read?
A: 20

Q: For C#CC(F)(F)[C@]1(O)CCC2C3CCC4=CC(=O)CCC4=C3C(c3ccc(CCCCCCC)cc3)C[C@@]21C (stereo partly drawn) [EC362, 17α-(1,1-difluoro-2-propyn-1-yl)-17β-hydroxy-11β-[4-p-(n-heptyl)phenyl]estra-4,9-dien-3-one], which “Fold Change” value [6] is on record?
A: 2

Q: Which “relative reduction in GFP fluorescence” value [7] does the source give for Nc1ccn([C@@H]2O[C@H](CO)[C@@H](O)C2(F)F)c(=O)n1 [Gemcitabine, reference compound] here?
A: 98%
